Measurements reported in patent publication US5686486A, “4-hydroxy-benzopyran-2-ones and 4-hydroxy-cycloalkyl[b]pyran-2-ones useful to treat retroviral infections” (priority 1995, dated 1997).
pKi: −log10 of the molar value. Where “and” joins values, the source holds several entries; their conditions need not be identical. Equal entries are not always repeated.

How the values were obtained:
[1] = target: T1, HIV-1 protease (Human immunodeficiency virus type 1 group M subtype B, UniProt P04585); assay: biochemical; conditions: for inhibition at 0.123 µM: read-out: HIV-1 Protease % Inhib, dose 0.123 uM; for inhibition at 0.37 µM: read-out: HIV-1 Protease % Inhib, dose 0.370 uM; for inhibition at 1.1 µM: read-out: HIV-1 Protease % Inhib, dose 1.100 uM; for inhibition at 3.3 µM: read-out: HIV-1 Protease % Inhib, dose 3.300 uM; for inhibition at 10 µM: read-out: HIV-1 Protease % Inhib, dose 10.000 uM; for inhibition at 30 µM: read-out: HIV-1 Protease % Inhib, dose 30.000 uM
Outline: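 Biotinylated, FITC-labeled peptide substrate (20 μl of 0.2 μM) incubated with HIV-1 protease (10 μl of 0.1 μM) and compound in 0.1 M sodium acetate pH 5.5, 1.0 M NaCl, 0.05% NP-40, 1 h, room temperature, dark. Streptavidin beads then capture uncleaved substrate; filtered labeled product read by fluorescence, giving percent inhibition.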

[2] = target: T1, HIV-1 protease; assay: biochemical; conditions: read-out: HIV-1 FITC KI
Description: Determination of Ki values utilizes the same materials and equipment employed for percent inhibition studies. Two-fold serial dilutions are made for a given inhibitor from 2, 3 or 4 starting concentrations with a total of 24, 36 or 48 individual inhibitor concentrations. These dilutions are performed utilizing the BioMek robotics system. The assay consists of 10 μL of 40 nM HIV-1 protease, 10 μL of the various inhibitor concentrations, and 20 μL of 200 μM substrate (40 μL total). The reaction is allowed to proceed for 90 min at room temperature, terminated with 40 μL of avidin beads and processed (supra vide). An inhibitor with a known Ki is run in parallel to verify the validity of the assay. The data is processed utilizing a computer program employing a nonlinear least square analysis of the data to generate the Ki values.

Row | SMILES | inhibition at 0.123 µM [1] | inhibition at 0.37 µM [1] | inhibition at 1.1 µM [1] | inhibition at 3.3 µM [1] | inhibition at 10 µM [1] | inhibition at 30 µM [1] | pKi [2] | HIV-1 Protease % Inhib ([1]; dose 0.123 uM) | HIV-1 Protease % Inhib ([1]; dose 0.370 uM) | HIV-1 Protease % Inhib ([1]; dose 1.100 uM) | HIV-1 Protease % Inhib ([1]; dose 3.300 uM) | HIV-1 Protease % Inhib ([1]; dose 10.000 uM) | HIV-1 Protease % Inhib ([1]; dose 30.000 uM)
1 | CCCC1CCCCCc2c1oc(=O)c([C@H](c1ccccc1)C1CC1)c2O (mixture of isomers) [Example 235, 3-(S)-(Cyclopropylphenylmethyl)-4-hydroxy-10-(R and S)-propyl-5,6,7,8,9,10-hexahydro-cycloocta[b]pyran-2-one] | 24.8% | 71.8% | 92.7% | 105% | 103% | 99.5% | 7.96 |  |  |  |  |  | 
2 | O=c1oc2c(c(O)c1C(c1ccccc1)C1CC1)CCCCCC2CC1CCCO1 (single isomer, unassigned) [Example 170, 3-(Cyclopropylphenylmethyl)-5,6,7,8,9,10-hexahydro-4-hydroxy-10-[(tetrahydro-2-furanyl)methyl]-2H-cycloocta[b]pyran-2-one] | 23.2% | 62.3% | 92.5% | 99.3% | 107% | 111% | 7.51 |  |  |  |  |  | 
3 | O=c1oc2c(c(O)c1C(c1ccccc1)C1CC1)CCCCCC2CC1CCCO1 (single isomer, unassigned) [Example 171, 3-(Cyclopropylphenylmethyl)-5,6,7,8,9,10-hexahydro-4-hydroxy-10-[(tetrahydro-2-furanyl)methyl]-2H-cycloocta[b]pyran-2-one] |  |  |  |  |  |  | 7.64 | 33.13% | 73.44% | 96.52% | 103.16% | 109.98% | 108.64%
4 | CC(C)(C)OC(=O)NCC(=O)Nc1cccc(C(c2c(O)c3c(oc2=O)CCCCCC3)C2CC2)c1 (single isomer, unassigned) [Example 238, Carbamic acid, [2-[[3-(R or S)-[cyclopropyl(5,6,7,8,9,10-hexahydro-4-hydroxy-2-oxo-2H-cycloocta[b]pyran-3-yl)methyl]phenyl]amino]-2-oxoethyl]-, 1,1-dimethyl ethyl ester] |  | 76.4% | 96.3% | 99.9% | 116% | 115% | 7.87 | 30.5% |  |  |  |  | 
5 | CC(C)(C)OC(=O)NCC(=O)Nc1cccc(C(c2c(O)c3c(oc2=O)CCCCCC3)C2CC2)c1 (single isomer, unassigned) [Example 239, Carbamic acid, [2-[[3-(R or S)-[cyclopropyl(5,6,7,8,9,10)-hexahydro-4-hydroxy-2-oxo-2H-cycloocta[b]pyran-3-yl)methyl]phenyl]amino]-2-oxoethyl]-, 1,1-dimethyl ethyl ester] |  |  |  |  |  |  | 8.66 | 69.55% | 88.01% | 98.34% | 102.72% | 107.4% | 100.72%
6 | CC(C)(C)OC(=O)N[C@@H](Cc1c[nH]cn1)C(=O)Nc1cccc(C(c2c(O)c3c(oc2=O)CCCCCC3)C2CC2)c1 (single isomer, unassigned) [Example 240, Carbamic acid, [2-[[3-(R or S)-[cyclopropyl(5,6,7,8,9,10-hexahydro-4-hydroxy-2-oxo-2H-cycloocta[b]pyran-3-yl)methyl]phenyl]amino]-1-(S)-(1H-imidazol-4-ylmethyl)-2-oxoethyl]-, 1,1 dimethyl ethyl ester] |  |  |  |  |  |  | 8.38 and 8.30 | 54.87% | 89.42% | 111.38% | 113.39% | 114.19% | 109.5%
7 | CC(C)(C)OC(=O)N[C@@H](Cc1c[nH]cn1)C(=O)Nc1cccc(C(c2c(O)c3c(oc2=O)CCCCCC3)C2CC2)c1 (single isomer, unassigned) [Example 241, Carbamic acid, [2-[[3-(R or S)-[Cyclopropyl(5,6,7,8,9,10-hexahydro-4-hydroxy-2-oxo-2H-cycloocta[b]pyran-3-yl)methyl]phenyl]amino]-1-(S)-(1H-imidazol-4-ylmethyl)-2-oxoethyl]-, 1,1 dimethyl ethyl ester] |  |  |  |  |  |  | 8.88 and 8.72 | 81.78% | 91.77% | 98.65% | 101.51% | 110.04% | 104.34%
8 | CCCC(c1cccc(NS(=O)(=O)c2ccc(C#N)cc2)c1)c1c(O)c2c(oc1=O)CCCCCC2 (single isomer, unassigned) [Example 437, (R or S)-Benzenesulfonamide, 4-cyano-N-[3-[1-(5,6,7,8,9,10-hexahydro-4-hydroxy-2-oxo-2H-cycloocta[b]pyran-3-yl)butyl]phenyl]-] | 68.1% | 87.1% | 103% | 108% | 112% | 105% | 8.64 |  |  |  |  |  | 
